# Measured values published in ChEMBL document CHEMBL4138169, “Biological activity of dihydropyrimidinone (DHPM) derivatives: A systematic review” (Eur J Med Chem, 2018).
# Target: Cav1.2 (voltage-dependent L-type calcium channel subunit alpha-1C) (Homo sapiens, UniProt Q13936)
# Experiment: Inhibition of human Cav1.2 expressed in HEK293 cells assessed as reduction in Ca2+ uptake at 100 uM measured as first 2 mins sampled at a frequency of one sample every second and the last 12 min at a frequency of one sample every 5 secs by fluo-3AM-based FLIPR assay
# Format: cell-based
# Settings: HEK293 cells that express human Cav1.2
# Sequence of Cav1.2 (voltage-dependent L-type calcium channel subunit alpha-1C) (Q13936 whole entry): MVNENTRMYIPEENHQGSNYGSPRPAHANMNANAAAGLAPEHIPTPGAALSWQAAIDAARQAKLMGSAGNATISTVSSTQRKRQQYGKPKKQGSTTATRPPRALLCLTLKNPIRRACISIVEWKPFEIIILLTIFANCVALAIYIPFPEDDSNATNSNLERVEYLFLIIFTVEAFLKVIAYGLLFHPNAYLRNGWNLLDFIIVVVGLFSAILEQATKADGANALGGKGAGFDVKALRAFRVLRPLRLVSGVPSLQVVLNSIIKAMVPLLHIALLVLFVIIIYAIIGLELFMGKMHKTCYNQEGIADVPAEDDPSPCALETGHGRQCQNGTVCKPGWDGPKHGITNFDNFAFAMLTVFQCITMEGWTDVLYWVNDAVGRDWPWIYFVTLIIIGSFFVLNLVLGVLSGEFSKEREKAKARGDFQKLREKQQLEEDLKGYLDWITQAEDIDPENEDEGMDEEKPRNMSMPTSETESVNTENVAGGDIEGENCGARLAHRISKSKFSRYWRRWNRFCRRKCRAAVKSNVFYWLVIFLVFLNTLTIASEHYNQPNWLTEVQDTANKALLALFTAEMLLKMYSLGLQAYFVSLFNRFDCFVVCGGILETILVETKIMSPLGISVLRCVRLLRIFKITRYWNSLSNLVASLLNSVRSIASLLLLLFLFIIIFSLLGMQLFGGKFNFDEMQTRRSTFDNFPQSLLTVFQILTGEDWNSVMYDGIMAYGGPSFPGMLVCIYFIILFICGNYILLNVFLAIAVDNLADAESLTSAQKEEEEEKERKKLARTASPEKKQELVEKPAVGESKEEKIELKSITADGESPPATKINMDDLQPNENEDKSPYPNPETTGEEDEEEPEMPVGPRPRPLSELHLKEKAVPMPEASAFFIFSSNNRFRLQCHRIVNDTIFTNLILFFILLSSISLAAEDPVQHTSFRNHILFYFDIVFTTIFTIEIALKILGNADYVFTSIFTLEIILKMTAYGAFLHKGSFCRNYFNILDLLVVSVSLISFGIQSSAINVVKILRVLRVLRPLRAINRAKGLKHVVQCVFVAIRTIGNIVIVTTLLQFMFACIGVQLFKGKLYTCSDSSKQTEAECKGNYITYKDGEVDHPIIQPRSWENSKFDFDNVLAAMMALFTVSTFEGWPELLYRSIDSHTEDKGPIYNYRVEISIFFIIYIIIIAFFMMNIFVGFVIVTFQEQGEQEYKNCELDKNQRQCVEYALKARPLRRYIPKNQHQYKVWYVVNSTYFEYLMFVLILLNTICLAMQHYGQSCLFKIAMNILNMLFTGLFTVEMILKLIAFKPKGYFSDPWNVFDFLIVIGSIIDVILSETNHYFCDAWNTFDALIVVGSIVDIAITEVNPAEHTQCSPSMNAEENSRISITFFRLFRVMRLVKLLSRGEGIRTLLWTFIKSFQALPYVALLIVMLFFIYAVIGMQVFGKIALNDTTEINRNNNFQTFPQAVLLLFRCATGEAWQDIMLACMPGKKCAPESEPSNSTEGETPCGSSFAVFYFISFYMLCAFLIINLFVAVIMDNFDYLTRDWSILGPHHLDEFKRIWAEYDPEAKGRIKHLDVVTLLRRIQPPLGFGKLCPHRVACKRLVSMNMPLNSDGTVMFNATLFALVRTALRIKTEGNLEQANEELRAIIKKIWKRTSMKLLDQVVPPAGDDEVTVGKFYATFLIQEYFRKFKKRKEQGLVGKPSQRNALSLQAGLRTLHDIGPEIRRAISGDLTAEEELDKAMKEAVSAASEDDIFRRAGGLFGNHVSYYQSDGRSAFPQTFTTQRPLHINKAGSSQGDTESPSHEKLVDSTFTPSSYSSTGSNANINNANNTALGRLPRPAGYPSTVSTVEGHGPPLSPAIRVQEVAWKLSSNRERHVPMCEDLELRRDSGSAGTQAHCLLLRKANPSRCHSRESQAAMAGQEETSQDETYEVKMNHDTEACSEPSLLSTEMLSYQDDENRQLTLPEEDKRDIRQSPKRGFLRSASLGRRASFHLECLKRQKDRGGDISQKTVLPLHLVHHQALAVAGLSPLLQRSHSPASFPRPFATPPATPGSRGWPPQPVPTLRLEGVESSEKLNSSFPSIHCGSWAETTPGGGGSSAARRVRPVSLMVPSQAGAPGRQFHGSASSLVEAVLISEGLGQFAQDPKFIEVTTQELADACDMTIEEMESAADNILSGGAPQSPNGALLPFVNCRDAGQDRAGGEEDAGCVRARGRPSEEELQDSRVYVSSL
smiles,measurement,value
CCOC(=O)C1=C(C)NC(=S)NC1c1cccc(O)c1 (stereo unspecified) [MONASTROL],inhibition at 100 µM,70%
